In patent US10195156B2, “Compounds and compositions for intracellular delivery of agents” (ModernaTX, Inc., priority 2015, dated 2019):
Entries after “also recorded” stand apart in the source; their conditions may differ. Read-outs that look alike come from different tables or passages of the source. Values belong to the compound of their own block, whether it stands above or below them.

Assays:
[1] = Particle size and polydispersity index of nanoparticle compositions (Zetasizer Nano ZS); type: physicochemical
Summary of the method: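 Particle size and PDI were measured on a Zetasizer Nano ZS with the nanoparticle compositions dispersed in 1×PBS.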

[2] = Encapsulation efficiency of RNA (QUANT-IT RIBOGREEN RNA assay); type: physicochemical
Summary of the method: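 Nanoparticle samples diluted to ~5 μg/mL RNA in TE buffer (pH 7.5), incubated with or without 2% Triton X-100 solution at 37 °C for 15 min, then RiboGreen added. Fluorescence read at ~480/520 nm, blank-subtracted; free RNA % = intact over Triton-disrupted signal.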

[3] = test system: luciferase (Luc) mRNA expression; assay: Expression of Luc induced by sample formulations, whole-body bioluminescence after intravenous administration; type: in vivo
Summary of the method: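 Mice (n=6) dosed intravenously with Luc mRNA nanoparticle formulations at 0.5 mg/kg. Whole-body bioluminescence measured at 3, 6 and 24 h. Standard MC3 formulation and PBS control run alongside.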

IL-6 = assay: Cytokine production induced by sample formulations: IL-6; type: in vivo; details: mice, i.v., 0.5 mpk, 6 hours; for IL-6: in pg/mL (unit assumed)
Summary of the method: (§1)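 Mice received nanoparticle formulations intravenously at 0.5 mpk, with standard MC3 formulation and PBS as controls. Cytokine concentrations were measured 6 hours after dosing.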

IP-10 = assay: Cytokine production induced by sample formulations: IP-10; type: in vivo; details: mice, i.v., 0.5 mpk, 6 hours; for IP-10: in pg/mL (unit assumed)
Summary of the method: as §1

hEPO mRNA expression = assay: Expression of hEPO in rats after intravenous administration; type: in vivo; details: for hEPO (pg/mL) 3 hours / hEPO (pg/mL) 6 hours / hEPO (pg/mL) 24 hours: Table 6, 0.2 mg/kg or 0.5 mg/kg; for Lipid/MC3 hEPO S.D. (rats): hEPO expression relative to MC3, S.D. rats, intravenous
Method: PBS (phosphate buffered saline) is used as control.
Formulations were prepared according to Table 5 and included mRNA encoding hEPO.
[…] After the 48 hour time point, livers and spleens were harvested and frozen.

[4] = Lipid levels in liver and spleen 48 hours after administration; type: in vivo, rats; details: for concentration at 48 h: Sprague-Dawley, rat, intravenous
Summary of the method: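 Rats (n=3 or 6) received lipid nanoparticle formulations intravenously at 0.2 mg/kg or 0.5 mg/kg. Liver and spleen were harvested and frozen 48 h after dosing, and the lipid amount remaining in each tissue was measured and expressed as a fraction of the dose.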

[5] = Table 1, rows without footnote mark
[6] = Table 1, rows without footnote mark (lipid:DOPE:cholesterol:PEG-DMG 40:20:38.5:1.5, Luc mRNA; MC3 standard formulation)
[7] = Table 5, hEPO mRNA, 40:20:38.5:1.5 Lipid:DOPE:Chol:PEG-DMG
[8] = Table 2, mice, i.v., 0.5 mg/kg, 3 hours
[9] = liver, 48 hours after administration, read-out: Lipid in liver
[10] = spleen, 48 hours after administration, read-out: Lipid in spleen
[11] = liver, 48 hours after administration
[12] = spleen, 48 hours after administration
[13] = Table 5, hEPO mRNA, 50:10:38.5:1.5 Lipid:DSPC:Chol:PEG-DMG
[14] = Table 20-1, rows without footnote mark
[15] = Table 17-2, mice, i.v., 0.5 mg/kg
[16] = Table 19-2, mice, i.v., 0.5 mg/kg
[17] = Table 20-2, mice, i.v., 0.5 mg/kg
[18] = Table 21-2, mice, i.v., 0.5 mg/kg

- PDI [1, 5]: 0.096
- Size (nm) [1, 6]: 87.8 nm
- PDI [1, 7]: 0.13
- Size (nm) [1, 7]: 87.5 nm
- EE (%) [2, 5]: 96.9%
- EE (%) [2, 7]: 93.79%
- IL-6 (IL-6; Table 4): 31
- IP-10 (IP-10; Table 4): 2382
- concentration at 48 h [4, 9]: 16800 ng/g
- concentration at 48 h [4, 10]: 2320 ng/g
- % remaining dose in liver [4, 11]: 23.8%
- % remaining dose in spleen [4, 12]: 0.22%
SMILES: CCCCCCCCCCCCN(CCCCCCCCCCCC)CCN(CCCCCCCCCCCC)CCN1CCN(CCN(CCCCCCCCCCCC)CCCCCC(=O)OCCCCC)CC1 [Compound 12, Pentyl 6-((2-(4-(2-((2-(didodecylamino)ethyl)(dodecyl)amino)ethyl)piperazin-1-yl)ethyl)(dodecyl)amino)hexanoate]
- Total Flux 3 hours [3, 8]: 1.06E+10
- Total Flux 6 hours ([3]; Table 2, mice, i.v., 0.5 mg/kg): 1.38E+10
- Total Flux 24 hours ([3]; Table 2, mice, i.v., 0.5 mg/kg): 6.03E+08
- Luc expression in mice compared with MC3 (in words) ([3]; Table 7a): significantly lower
- hEPO (pg/mL) 3 hours (hEPO mRNA expression; rats, i.v.): 592260 pg/mL
- hEPO (pg/mL) 6 hours (hEPO mRNA expression; rats, i.v.): 424740 pg/mL
- hEPO (pg/mL) 24 hours (hEPO mRNA expression; rats, i.v.): 165404 pg/mL
- Lipid/MC3 hEPO S.D. (rats) (hEPO mRNA expression): 0.32

- PDI [1, 5]: 0.117
- Size (nm) [1, 6]: 86.2 nm
- PDI ([1]; Table 1b): 0.17
- Size (nm) ([1]; Table 1b): 74.7 nm
- PDI [1, 13]: 0.11
- Size (nm) [1, 13]: 76.5 nm
- PDI ([1]; Table 17-1): 0.138
- Size (nm) ([1]; Table 17-1): 83.8 nm
- PDI ([1]; Table 19-1): 0.122
- Size (nm) ([1]; Table 19-1): 83.3 nm
- PDI [1, 14]: 0.117
- Size (nm) [1, 14]: 84.0 nm
- PDI ([1]; Table 21-1): 0.1191
- Size (nm) ([1]; Table 21-1): 91.4 nm
- EE (%) [2, 5]: 97.70%
- EE (%) ([2]; Table 1b): 97.3%
- EE (%) [2, 13]: 97.37%
- EE (%) ([2]; Table 17-1): 98.0%
- EE (%) ([2]; Table 19-1): 97.6%
- EE (%) [2, 14]: 97.4%
- EE (%) ([2]; Table 21-1): 98.1%
- IL-6 (IL-6; Table 4): 92
- IL-6 (IL-6; Table 17-4): 107
- IL-6 (IL-6; Table 19-4): 65.7
- IL-6 (IL-6; Table 20-4, formula (20-I)): 119.5
- IL-6 induction, rank within the named table (in words) (IL-6): highest IL-6 and IP-10 levels
- IP-10 (IP-10; Table 4): 438
- IP-10 (IP-10; Table 17-4): 500
- IP-10 (IP-10; Table 19-4): 323.9
- IP-10 (IP-10; Table 20-4, formula (20-I)): 499.1
- IP-10 induction, rank or comparison with IL-6 (in words) (IP-10): highest IL-6 and IP-10 levels
- concentration at 48 h [4, 9]: 21800 ng/g
- concentration at 48 h [4, 10]: 2780 ng/g
- % remaining dose in liver [4, 11]: 51%
- dose remaining in the liver after 48 hours [4, 11]: approximately 60%
- % dose remainng Rat liver (48 h) ([4]; rat liver, 48 h): 43.11%
- % remaining dose in spleen [4, 12]: 0.44%
SMILES: CCCCCC=CCC=CCCCCCCCCC(CCCCCCCCC=CCC=CCCCCC)OC(=O)CCCN(C)C (stereo not drawn) [MC3, heptatriaconta-6,9,28,31-tetraen-19-yl 4-(dimethylamino)butanoate, reference compound]
- Total Flux 3 hours [3, 8]: 1.63E+10
- Total Flux 6 hours ([3]; Table 2, mice, i.v., 0.5 mg/kg): 1.73E+10
- Total Flux 24 hours ([3]; Table 2, mice, i.v., 0.5 mg/kg): 1.16E+09
- Total Flux 3 hours ([3]; Table 17-2, mice, i.v., 0.5 mg/kg, 3 hours): 1.63E+10
- Total Flux 6 hours [3, 15]: 2.13E+10
- Total Flux 24 hours [3, 15]: 1.01E+09
- Total Flux 3 hours ([3]; Table 19-2, mice, i.v., 0.5 mg/kg, 3 hours): 1.53E+10
- Total Flux 6 hours [3, 16]: 1.73E+10
- Total Flux 24 hours [3, 16]: 1.13E+09
- Total Flux 3 hours ([3]; Table 20-2, mice, i.v., 0.5 mg/kg, 3 hours): 1.73E+10
- Total Flux 6 hours [3, 17]: 1.94E+10
- Total Flux 24 hours [3, 17]: 8.48E+08
- Total Flux 3 hours ([3]; Table 21-2, mice, i.v., 0.5 mg/kg, 3 hours): 1.69E+10
- Total Flux 6 hours [3, 18]: 2.87E+10
- Total Flux 24 hours [3, 18]: 2.23E+10
- total flux after 3 hours, rank within the named table (in words) ([3]; mice, i.v., 0.5 mg/kg, 3 hours): highest after 3 hours
- total flux / Luc expression, rank within the named table (in words) ([3]; mice, i.v., 0.5 mg/kg, each time point): highest total flux; also recorded: highest luciferase expression
- hEPO (pg/mL) 3 hours (hEPO mRNA expression; rats, i.v.): 1407947 pg/mL
- hEPO (pg/mL) 6 hours (hEPO mRNA expression; rats, i.v.): 1036013 pg/mL
- hEPO (pg/mL) 24 hours (hEPO mRNA expression; rats, i.v.): 436243 pg/mL
- AUC (0.1 mpk) (hEPO mRNA expression; hEPO expression in S.D. rats, 0.1 mpk): 1.62E+06
- AUC (1 mpk) (hEPO mRNA expression; hEPO expression in S.D. rats, 1 mpk): 1.17E+08
- Lipid/MC3 hEPO S.D. (rats) (hEPO mRNA expression): 1
- hEPO expression in rats, comparison (in words) (hEPO mRNA expression; rats, i.v., 0.2 or 0.5 mg/kg, Tables 6, 7a): highest hEPO expression at each time point
